From US9290440B2, “Bicyclic compound” (TOA EIYO LTD., priority 2012, dated 2016)
Like-named read-outs stand apart in the source and are kept apart here.

Molecular target: T1, human sGC α subunit and β subunit (Homo sapiens, UniProt Q02153)
T1 construct: expressed in transfected cells
T1 sequence (Q02153 1-619): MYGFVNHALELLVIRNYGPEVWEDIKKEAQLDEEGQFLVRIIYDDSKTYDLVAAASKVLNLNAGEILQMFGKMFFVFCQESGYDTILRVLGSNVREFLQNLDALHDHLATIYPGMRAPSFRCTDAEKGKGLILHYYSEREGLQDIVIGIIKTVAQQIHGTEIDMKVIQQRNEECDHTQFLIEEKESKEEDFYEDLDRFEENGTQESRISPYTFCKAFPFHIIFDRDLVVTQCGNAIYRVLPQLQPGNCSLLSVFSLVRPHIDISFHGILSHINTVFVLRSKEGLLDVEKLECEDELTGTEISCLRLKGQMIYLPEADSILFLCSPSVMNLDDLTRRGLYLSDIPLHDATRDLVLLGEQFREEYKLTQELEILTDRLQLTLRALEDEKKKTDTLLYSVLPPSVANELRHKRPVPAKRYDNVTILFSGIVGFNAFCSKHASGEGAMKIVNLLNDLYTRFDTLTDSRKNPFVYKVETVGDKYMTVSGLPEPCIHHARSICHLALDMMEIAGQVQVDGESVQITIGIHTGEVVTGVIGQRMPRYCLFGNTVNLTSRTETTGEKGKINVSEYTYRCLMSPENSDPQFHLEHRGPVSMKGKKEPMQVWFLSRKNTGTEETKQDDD
T1 sequence (Q02108 1-690 partner): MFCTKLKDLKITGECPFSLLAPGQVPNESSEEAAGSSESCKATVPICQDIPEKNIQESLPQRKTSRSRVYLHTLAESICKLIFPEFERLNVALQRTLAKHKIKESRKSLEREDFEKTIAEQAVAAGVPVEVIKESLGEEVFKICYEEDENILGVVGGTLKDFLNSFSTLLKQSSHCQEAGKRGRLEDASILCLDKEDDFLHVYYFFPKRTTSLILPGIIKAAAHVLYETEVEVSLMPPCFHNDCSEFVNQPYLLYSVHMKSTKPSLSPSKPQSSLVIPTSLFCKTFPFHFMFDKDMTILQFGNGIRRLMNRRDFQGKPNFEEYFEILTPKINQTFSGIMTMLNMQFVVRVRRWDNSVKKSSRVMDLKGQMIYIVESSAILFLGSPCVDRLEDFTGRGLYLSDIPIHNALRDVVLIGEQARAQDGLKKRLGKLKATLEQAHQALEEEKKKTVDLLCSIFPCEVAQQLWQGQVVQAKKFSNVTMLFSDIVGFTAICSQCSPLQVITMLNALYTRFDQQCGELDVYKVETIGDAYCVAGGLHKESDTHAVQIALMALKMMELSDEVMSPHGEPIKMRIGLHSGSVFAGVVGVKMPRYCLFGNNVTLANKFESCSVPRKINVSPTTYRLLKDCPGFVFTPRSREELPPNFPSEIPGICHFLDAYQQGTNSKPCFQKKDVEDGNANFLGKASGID
Assay: Maximum effect of sGC activating function (Ca2+ fluorescence in CHO-K1 cells expressing human sGC and mouse CNGA2)
Assay type: cell-based
Details: increase ratio of sGC activity vs control solution at 10 μmol/L test compound
Method in brief: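 CHO-K1 cells stably expressing human sGC α/β and mouse CNGA2 were FURA2-AM loaded and then treated with compound at 10 μmol/L for 10 min at RT, in buffer containing 100 μmol/L IBMX, with or without 10 μmol/L ODQ. Ca²⁺ was read as the 340/380 nm excitation ratio. Activity is the % increase over the DMSO control.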

[1] = ODQ not contained, read-out: Emax (%) ODQ− (Heme-dependent)
[2] = with 10 μmol/L ODQ, read-out: Emax (%) ODQ+ (Heme-independent)

Row | SMILES | Emax at 10 µM [1] [%] | Emax at 10 µM [2] [%]
1 | O=C(O)CCCCN(CCc1ccccc1OCc1ccc(CCc2ccccc2)cc1)Cc1ccc(C(=O)O)cc1 [Cinaciguat, reference compound] | 53 | 86
2 | O=C(O)CCCCN(CCc1ccccc1OCc1ccc(SCc2ccccc2)cc1)C1CCCc2cc(C(=O)O)ccc21 (stereo not drawn) [Example 15, 5-{N-[2-[2-(4-Benzylsulfanylbenzyloxyl)phenyl]ethyl]-N-(4-carboxybutyl)amino}-5,6,7,8-tetrahydronaphthalene-2-carboxylic acid] | 101 | 99.9
3 | O=C(O)CCCCN(CCc1ccccc1OCc1cccc2c1CCCC2)C1CCCc2cc(C(=O)O)ccc21 (stereo not drawn) [Example 29, 5-{N-(4-Carboxybutyl)-N-[2-[2-(5,6,7,8-tetrahydronaphthalene-1-ylmethoxy)phenyl]ethyl]amino}-5,6,7,8-tetrahydronaphthalene-2-carboxylic acid] | 141 | 133
